Here are results for 12 compounds from US8575170B2, “Flurbiprofen analogs and methods of use in treating cancer” (The Regents of the Unversity of Colorado, a body corporate, priority 2010, dated 2013).

The structures appear in SMILES notation. Read-outs that look alike come from different tables or passages of the source.

In one data set the test system is H2122. The data set can be described thus: MTT cell viability, H2122 lung carcinoma cell line. Type of data set: cell-based. The following applies: IC50 values for the H2122 lung carcinoma cell line, Table 5, read-out: H2122 In vitro. On the procedure: The ability of the flurbiprofen analog compounds of the invention to inhibit cancer cell growth and survival (viability) in a variety of cancer lines was examined in a standard MTT assay for cell viability, as detailed in Example 2.
The IC50 values given in Tables 1-4 were measured using the B1031 ([…]) compound) shown in Section IIB above. To confirm the generality of the results with respect to other fluribprofen analogs prepared in accordance with the invention, IC50 values for the other 11 analog compounds given in Section IIB were similarly determined for the H2122 lung carcinoma cell line.
The studies reported in Tables 1-3 above were carried out by incubating the cells in the test compound for four days, under standard cell-culture conditions, and measuring cell survival on day 5 (see Example 2).
Cell growth and survival following treatment with N—[(S)-2-Fluoro-α-methyl-4-biphenylacetyl]-[L-(4-phenylphenyl)alanine]-N-(2,2,6,6-tetramethyl-4-piperidinyl)amide (GCBH-110=B1031; (S)-Fmba-L-Bip-Atmp) were measured by a rapid colorimetric assay based on the tetrazolium salt MTT (3-(4,5-dimethylthiazol-2-yl)-2,5-diphenyl tetrazolium bromide) (Mosmann, J. Immunol. Methods 65: 55-63, 1983, with minor modifications).
Briefly, approximately 1,000-5,000 cancer cells from 15 different cancer cells lines were plated in 100 μL of growth medium in 96-well flat-bottomed microtiter plates. Cells were incubated overnight to allow recovery. Compounds to be tested were added to the cells in triplicate in a range of concentrations and the cells were incubated at 37° C., 5% CO2, with 100% humidity. Control cells were treated in the same way without antagonists. […] Plates were incubated for 4 days, allowing sufficient time for cell replication and compound-induced cell death to occur. On day 5, 25 μL of a 2 mg/mL solution of MTT (Sigma) dissolved in RMPI-1640 was added to each well. The plate was incubated for 4 h at 37° C. The supernatant liquid was removed and the blue formazan complex was dissolved by adding 100 μL of 0.02 N HCl in 75% isopropanol to all wells. Absorbance was immediately determined using a scanning multiwell plate reader.

Data set [1] can be described thus: Solubility of flurbiprofen analog compounds. The following applies: medium in which the compound is soluble, Table 5. Type of data set: physicochemical.
The test system of a further data set is HT-29 colon cancer cells. Kind of data set: Loss in cell viability, HT-29 colon cancer cells. The following applies: Homo sapiens; HT-29 colon cancer cell, FIG. 6A. Type of data set: cell-based. On the procedure: FIGS. 6A and 6B show the loss in cell viability in HT-29 colon cancer cells, in response to increasing concentrations of GH 502 (GCBH 118) (FIG. 6A), and the effect of various treatments, including increasing concentration of GH501 (GCBH 110) on U251 malignant glioma cells and BTIC EF12 brain tumor initiating stem cells (FIG. 6B).
The study shown in FIG. 6A examined the effect of GCBH-118 (GH502) on an HT-29 colon cancer cell, showing an IC50 value of about 1 μM. […] The graph indicates an IC50 value for the B1031 compound against the U251 brain cancer cell line of between 2 and 10 μM.

Data set [2] relates to H2122 lung carcinoma solid tumor xenograft. The data set can be described thus: H2122 lung carcinoma xenograft in nude mice. Type of data set: in vivo, athymic nude mice. Conditions: 5 mg/kg daily intraperitoneal, from day 7 after implantation, over the 25 days of treatment, FIG. 11. On the procedure: The efficacy of the treatment method was examined for both lung carcinoma-cell tumors and pancreatic-cell tumors implanted in athymic mice, according to the method detailed in Example 3. In the first study, mice injected with lung-carcinoma cells were treated, seven days after cancer-cell implantation, by daily injection of 5 mg/kg body weight of one of three different flurbiprofen analog compounds: B1005 (GCBH 104); B1020 (GCBH 108) and B1031 (GCBH 110). Tumor size was measured by calipers at the days indicated in FIG. 11, with final tumor weight and volume being determined by extracting the tumor from the sacrificed animals.
Compounds having high in vitro cytotoxic activity were tested against implanted tumors in vivo. In one study, athymic nude mice were implanted subcutaneously with suspensions of approximately 2 million H2122 lung carcinoma cells, in Matrigel suspension. On the seventh day after tumor implantation, groups of 5 mice bearing implants were injected intraperitoneally with the compounds being tested at 5 mg/kg/every day; control animals were injected with an equal volume of isotonic saline. […] Tumor size was measured with a caliper three times per week. Tumor volume was calculated by the formula: Volume (cc)=3.14×(length)×(width)^2/6
At autopsy, tumors were removed and weighed. Tumor inhibition was calculated on both weight and measurement basis.

With `C[C@H](C(=O)N[C@@H](Cc1ccc(F)cc1)C(=O)NC1CC(C)(C)NC(C)(C)C1)c1ccc(-c2ccccc2)c(F)c1` [GCBH-124, N—[(S)-2-Fluoro-α-methyl-4-biphenylacetyl]-[(4-fluoro)-L-phenylalanine]-N-(2,2,6,6-tetramethyl-4-piperidinyl)amide], the IC50 with H2122 (Homo sapiens, NCI-H2122) was 2500 nM. Also, in data set [1], the Solubility worked out at 20% DMSO.

As for `CC(C(=O)N[C@H](C(=O)NC1CC(C)(C)NC(C)(C)C1)C(c1ccccc1)c1ccccc1)c1ccc(-c2ccccc2)c(F)c1` (some centres unmarked) [GCBH-106], in the data set with H2122 (Homo sapiens, NCI-H2122), the IC50 was found to be 1200 nM. In addition, the Solubility in data set [1] amounted to 50% DMSO. For `C[C@H](C(=O)N[C@@H](Cc1ccc(C(F)(F)F)cc1)C(=O)NC1CC(C)(C)NC(C)(C)C1)c1ccc(-c2ccccc2)c(F)c1` [GCBH-122, N—[(S)-2-Fluoro-α-methyl-4-biphenylacetyl]-[(4-trifluoromethyl)-L-phenylalanine]-N-(2,2,6,6-tetramethyl-4-piperidinyl)amide], the IC50 in the data set on H2122 (Homo sapiens, NCI-H2122) stood at 2100 nM. In data set [1], this compound yielded a Solubility of 50% DMSO. Regarding `CC(C(=O)N[C@@H](Cc1ccc(OCc2c(Cl)cccc2Cl)cc1)C(=O)NC1CC(C)(C)NC(C)(C)C1)c1ccc(-c2ccccc2)c(F)c1` (stereo partly drawn) [GCBH-100, N—[(R,S)-2-Fluoro-α-methyl-4-biphenylacetyl]-[O-(2,6,dichlorobenzyl)-L-tyrosine]-N-(2,2,6,6-tetramethyl-4-piperidinyl)amide], the IC50 with H2122 (Homo sapiens, NCI-H2122) was found to be 4000 nM. The compound further came in with a Solubility in data set [1] of 50% DMSO. For `CC(C(=O)N[C@@H](Cc1cccnc1)C(=O)NC1CC(C)(C)NC(C)(C)C1)c1ccc(-c2ccccc2)c(F)c1` (stereo partly drawn) [GCBH-118, N—[(R,S)-2-Fluoro-α-methyl-4-biphenylacetyl]-(β-3-pyridyl-L-alanine)-N-(2,2,6,6-tetramethyl-4-piperidinyl)amide], the IC50 in the data set with HT-29 colon cancer cells was around 1000 nM; in the data set on H2122 (Homo sapiens, NCI-H2122), 1400 nM. Consider `CC(C(=O)N[C@@H](Cc1ccc(OCc2c(Cl)cccc2Cl)cc1)C(=O)NC1CC(C)(C)NC(C)(C)C1)c1ccc(-c2ccccc2)c(F)c1` (stereo partly drawn) [GCBH-112, N—[(R,S)-2-Fluoro-α-methyl-4-biphenylacetyl]-[O-(2,6,dichlorobenzyl)-L-tyrosine]-N-(2,2,6,6-tetramethyl-4-piperidinyl)amide], for which the IC50 in the data set with H2122 stood at 1600 nM. In data set [1], the Solubility is 50% DMSO.

As for `C[C@H](C(=O)NC(CC(=O)NC1CC(C)(C)NC(C)(C)C1)c1ccc(-c2ccccc2)cc1)c1ccc(-c2ccccc2)c(F)c1` (stereo partly drawn) [GCBH-120, N—[(S)-2-Fluoro-α-methyl-4-biphenylacetyl]-[R,S,-β-(p-biphenyl)-β-alanine]-N-(2,2,6,6-tetramethyl-4-piperidinyl)amide], the IC50 in the data set with H2122 (Homo sapiens, NCI-H2122) turned out to be 5400 nM. Also, the Solubility in data set [1] stood at 50% DMSO. Taken in the same sequence, the figures for `CC(C(=O)N[C@@H](Cc1csc2ccccc12)C(=O)NC1CC(C)(C)NC(C)(C)C1)c1ccc(-c2ccccc2)c(F)c1` (stereo partly drawn) [GCBH-114, N—[(R,S)-2-Fluoro-α-methyl-4-biphenylacetyl]-(L-3-benzothienylalanine)-N-(2,2,6,6-tetramethyl-4-piperidinyl)amide] were 1200 nM and 50% DMSO. For `CC(C(=O)N[C@@H](Cc1ccc(-c2ccccc2)cc1)C(=O)NC1CC(C)(C)NC(C)(C)C1)c1ccc(-c2ccccc2)c(F)c1` (stereo partly drawn) [GCBH-104, N—[(R,S)-2-Fluoro-α-methyl-4-biphenylacetyl]-[L-(4-phenylphenyl)alanine]-N-(2,2,6,6-tetramethyl-4-piperidinyl)amide], in data set [2], the “inhibition of growth of the lung carcinoma cell line H2122 tumor” value stood at 74%. `CC(C(=O)N[C@@H](CC1CCCCC1)C(=O)NC1CC(C)(C)NC(C)(C)C1)c1ccc(-c2ccccc2)c(F)c1` (stereo partly drawn) [GCBH-116, N—[(R,S)-2-Fluoro-α-methyl-4-biphenylacetyl]-(β-cyclohexyl-L-alanine)-N-(2,2,6,6-tetramethyl-4-piperidinyl)amide]: the IC50 in the data set with H2122 (Homo sapiens, NCI-H2122) worked out at 2300 nM. Moreover, the Solubility in data set [1] is reported as 20% DMSO. As for `CC(C(=O)N[C@@H](Cc1ccc(OCc2c(Cl)cccc2Cl)cc1)C(=O)NCCCN1CCN(C)CC1)c1ccc(-c2ccccc2)c(F)c1` (stereo partly drawn) [GCBH-102, N—[(R,S)-2-Fluoro-α-methyl-4-biphenylacetyl]-[O-(2,6,dichlorobenzyl)-L-tyrosine]-N-[3-(4-methyl-1-piperizinyl)propyl]amide], the IC50 in the data set on H2122 was 8000 nM. The Solubility in data set [1] was 20% DMSO.

With `C[C@H](C(=O)N[C@@H](Cc1ccc(N(CCCl)CCCl)cc1)C(=O)NC1CC(C)(C)NC(C)(C)C1)c1ccc(-c2ccccc2)c(F)c1` [GCBH-126], the IC50 in the data set with H2122 (Homo sapiens, NCI-H2122) worked out at 3800 nM. The compound further returned a Solubility in data set [1] of 20% DMSO.
